From patent publication US20250129012A1, “ANTI-INFLAMMATORY AND ANALGESIC COMPOUNDS AND USE THEREOF” (JIANGSU ATOM BIOSCIENCE AND PHARMACEUTICAL CO., LTD., priority 2021, published 2025)
Like-named read-outs stand apart in the source and are kept apart here. Marks after values point to notes of the source that are not given here.

What was measured:
[1] = tested on: gouty arthritis rats (sodium urate, right ankle and knee joint cavities); test: Pharmacodynamics experiment B on gouty arthritis rats: gait score; assay type: in vivo, SD rats; conditions: for Gait Score: dose 0.6 mg/kg gavage, mean; for Gait versus model group, in words: compounds 0.6 mg/kg, colchicine 0.6 and 1.2 mg/kg
Procedure: (§1) Compounds 12, 16, 19, 30, 34, 36, 38, 40, 44, 48, 49, 52, 58, 69, 83, 98, 102, 119, 121, and 122 were prepared by grinding with 0.5% CMC-Na prior to administration and formulated into suspensions of appropriate concentration (0.12 mg/mL) for gavage, with an administered dose of 0.5 mL/100 g.
(§2) 240 SD rats, males, were acclimatized for one week and weighed 180-220 g. […] The dose of each compound group was 0.6 mg/kg. The compounds in each group were prepared into the corresponding concentration suspension, and the volume of administration was 10 mL/kg.
(§3) 250 mg of sodium urate were added to 9 mL of saline, and 1 mL of Tween-80 solution was added, the resulting mixture was heated and stirred to formulate 10 mL of sodium urate solution. The rats were grasped and fixed, and 0.2 mL of sodium urate solution was injected into the right ankle and knee joint cavities respectively to establish gouty arthritis rat model.
(§4) Before modeling, positive drug and tested compounds were pre-administered for 7 days, once a day, and modeling was performed on day 8, and drug administration by gavage continued for 3 days after modeling.
Gait was scored according to the modified gait grading criteria introduced by Coderre et al. The gait of each rat was observed before and 2 h, 4 h, 8 h, 10 h, 24 h and 48 h after modeling and graded scoring was performed. The gait grading criteria were as follows: 0 point, normal walking; 1 point, slight lameness, the lower limbs were slightly bent; 2 points: moderate lameness, the lower limbs just touched the ground; 3 points, severe lameness, the lower limbs left the ground, and walked on three feet. The mean score of each group was calculated and compared with that of the model group.
(§5) Each experimental data was expressed as the mean, and intergroup comparisons were examined for significance using the ANOVA-Dunnett T-test, with P<0.05 as the significance indicator.

[2] = tested on: gouty arthritis rats (sodium urate, right ankle and knee joint cavities); test: Pharmacodynamics experiment B on gouty arthritis rats: ankle swelling rate; assay type: in vivo, SD rats; conditions: for change in vivo at 0.6 mg/kg: Rattus norvegicus, po, read-out: Swelling rate (ankle); for Swelling rate (ankle): dose 0.6 mg/kg gavage
Procedure: as §1, §2, §3, §4
Before modeling and 2 h, 4 h, 8 h, 10 h, 24 h and 48 h after modeling, the circumference of the right ankle joint was measured using a soft ruler or the volume change at the ankle was measured (volumetric method), and the swelling degree and swelling rate of ankle joint were calculated:
Swelling degree (mm)=measured circumference (mm)−baseline circumference (mm)
Swelling rate (%)=swelling degree (mm)/baseline circumference (mm)×100%
as §5

[3] = tested on: TNF-α; test: Inflammatory factor experiment B: TNF-α in knee synovial tissue (ELISA); assay type: in vivo, SD rats; conditions: for inhibition in vivo at 0.6 mg/kg: Rattus norvegicus, po, 48 h, read-out: TNF-α percentage decrease %
[4] = tested on: IL-1β; test: Inflammatory factor experiment B: IL-1β in knee synovial tissue (ELISA); assay type: in vivo, SD rats; conditions: for inhibition in vivo at 0.6 mg/kg: Rattus norvegicus, po, 48 h, read-out: IL-1β percentage decrease %
[5] = tested on: IL-6; test: Inflammatory factor experiment B: IL-6 in knee synovial tissue (ELISA); assay type: in vivo, SD rats; conditions: Rattus norvegicus, po, 48 h, read-out: IL-6 percentage decrease %
[6] = In vivo pharmacokinetics in SD rats
Procedure: Compound stock solution preparation: an appropriate amount of solid powder of the compounds were weighed separately, a certain amount of DMSO was added and 20 mg/mL of stock solution was obtained under vortex ultrasound.
Preparation of test compound for gavage: an appropriate amount of compound stock solution was taken by pipette, a certain amount of Solutol HS15 solution was added, the mixture was vortexed for 1 minute, then a certain amount of saline was added, and 1 mg/mL of solution was obtained after mixing well.
Preparation of test compounds for intravenous injection: an appropriate amount of compound stock solution was taken by pipette separately, a certain amount of Solutol HS15 solution was added, the mixture was vortexed for 1 minute, then a certain amount of physiological saline was added and a solution of 0.5 mg/mL was obtained after mixing well.
The animals were fasted overnight before administration by gavage, and food was given 4 hours after administration, during which they were free to drink. Two groups were set for each test compound, intravenous injection group and oral administration group, and the dose and mode of administration were shown in Table 12 below.
The blood samples were centrifuged at 4° C. for 5 min at 2,000 g to separate the plasma. The plasma samples were analyzed by LC/MS/MS to detect the concentration of each test compound in the plasma samples.
The parameters related to the […] were obtained by calculations with WinNonlin® Professional software.

[7] = synovial tissue of knee joints, 48 h after modeling, dose 0.6 mg/kg
[8] = Intravenous injection - 1 mg/kg

Compound: COc1cc2c(c(OC)c1OC)-c1ccc(=O)c(O[C@H]3CCOC3)cc1[C@@H](NC(C)=O)CC2 [Compound 19, N—{(S)-1,2,3-trimethoxy-10-oxo-9-{[(S)-tetrahydrofuran-3-yl]oxy}-5,6,7,10-tetrahydrobenzo[a]heptalen-7-yl}acetamide]
- Gait Score ([1]; 2 h): 0.0
- Gait Score ([1]; 4 h): 0
- Gait Score ([1]; 8 h): 0**
- Gait Score ([1]; 10 h): 0**
- Gait Score ([1]; 24 h): 0.2
- Gait Score ([1]; 48 h): 0.1
- Gait versus model group, in words [1]: significant improvement in gait occurred at different time points
- change in vivo at 0.6 mg/kg ([2]; 2 h): 8.77%
- change in vivo at 0.6 mg/kg ([2]; 4 h): 10.9%
- change in vivo at 0.6 mg/kg ([2]; 8 h): 17.1%
- change in vivo at 0.6 mg/kg ([2]; 10 h): 14.1%
- change in vivo at 0.6 mg/kg ([2]; 24 h): 19.4%
- change in vivo at 0.6 mg/kg ([2]; 48 h): 7.77%
- inhibition in vivo at 0.6 mg/kg [3]: 84.7%
- inhibition in vivo at 0.6 mg/kg [4]: 81.5%
- inhibition in vivo at 0.6 mg/kg [5]: 98.1%

Compound: COc1cc2c(c(OC)c1OC)-c1ccc(C#N)c(=O)cc1[C@@H](NC(C)=O)CC2 [Compound 38, (S)—N-(10-cyano-1,2,3-trimethoxy-9-oxo-5,6,7,9-tetrahydrobenzo[a]heptalen-7-yl)acetamide]
- Gait Score ([1]; 2 h): 0
- Gait Score ([1]; 4 h): 0
- Gait Score ([1]; 8 h): 0*
- Gait Score ([1]; 10 h): 0*
- Gait Score ([1]; 24 h): 0
- Gait Score ([1]; 48 h): 0
- Gait versus model group, in words [1]: significant improvement in gait occurred at different time points
- change in vivo at 0.6 mg/kg ([2]; 2 h): 6.34%
- change in vivo at 0.6 mg/kg ([2]; 4 h): 12.6%
- change in vivo at 0.6 mg/kg ([2]; 8 h): 10.4%
- change in vivo at 0.6 mg/kg ([2]; 10 h): 17.9%
- change in vivo at 0.6 mg/kg ([2]; 24 h): 16.9%
- change in vivo at 0.6 mg/kg ([2]; 48 h): 6.71%
- inhibition in vivo at 0.6 mg/kg [3]: 86.6%
- inhibition in vivo at 0.6 mg/kg [4]: 102%
- inhibition in vivo at 0.6 mg/kg [5]: 69%

Compound: COc1cc2c(c(OC)c1OC)-c1ccc(C(=O)N3CCC[C@H]3C#N)c(=O)cc1[C@@H](NC(C)=O)CC2 [Compound 60, N—{(S)-10-[(S)-2-cyanopyrrolidin-1-carbonyl]-1,2,3-trimethoxy-9-oxo-5,6,7,9-tetrahydrobenzo[a]heptalen-7-yl}acetamide]
- inhibition in vivo at 0.6 mg/kg [3]: 85.8%
- inhibition in vivo at 0.6 mg/kg [4]: 76.1%
- inhibition in vivo at 0.6 mg/kg [5]: 59.5%

Compound: COc1cc2c(c(OC)c1OC)-c1ccc(C(=O)N3CCCC3)c(=O)cc1[C@@H](NC(C)=O)CC2 [Compound 61, (S)—N-{1,2,3-trimethoxy-9-oxo-10-(pyrrolidin-1-carbonyl)-5,6,7,9-tetrahydrobenzo[a]heptalen-7-yl}acetamide]
- inhibition in vivo at 0.6 mg/kg [3]: 71.2%
- inhibition in vivo at 0.6 mg/kg [4]: 97.2%
- inhibition in vivo at 0.6 mg/kg [5]: 52.5%

Compound: CNC(=O)N[C@H]1CCc2cc(OC)c(OC)c(OC)c2-c2ccc(C(=O)NC)c(=O)cc21 [Compound 81, (S)-1,2,3-trimethoxy-N-methyl-7-(3-methylureido)-9-oxo-5,6,7,9-tetrahydrobenzo[a]heptalen-10-carboxamide]
- inhibition in vivo at 0.6 mg/kg [3]: 78%
- inhibition in vivo at 0.6 mg/kg [4]: 86.6%
- inhibition in vivo at 0.6 mg/kg [5]: 70.6%

Compound: COc1cc2c(c(OC)c1OC)-c1ccc(-n3cnnn3)c(=O)cc1[C@@H](NC(C)=O)CC2 [Compound 95, (S)—N-{1,2,3-trimethoxy-9-oxo-10-(1H-tetrazol-1-yl)-5,6,7,9-tetrahydrobenzo[a]heptalen-7-yl}acetamide]
- inhibition in vivo at 0.6 mg/kg [3]: 70%
- inhibition in vivo at 0.6 mg/kg [4]: 40.4%
- inhibition in vivo at 0.6 mg/kg [5]: 109%

Compound: COc1cc2c(c(OC)c1OC)-c1ccc(-n3ccnc3)c(=O)cc1[C@@H](NC(C)=O)CC2 [Compound 97, (S)—N-{10-(1H-imidazol-1-yl)-1,2,3-trimethoxy-9-oxo-5,6,7,9-tetrahydrobenzo[a]heptalen-7-yl}acetamide]
- inhibition in vivo at 0.6 mg/kg [3]: 92%
- inhibition in vivo at 0.6 mg/kg [4]: 20.2%
- inhibition in vivo at 0.6 mg/kg [5]: 97.8%

Compound: COc1cc2c(c(OC)c1OC)-c1ccc(-n3ccnn3)c(=O)cc1[C@@H](NC(C)=O)CC2 [Compound 99, (S)—N-(1,2,3-trimethoxy-9-oxo-10-(1H-1,2,3-triazol-1-yl)-5,6,7,9-tetrahydrobenzo[a]heptalen-7-yl)acetamide]
- inhibition in vivo at 0.6 mg/kg [3]: 91.7%
- inhibition in vivo at 0.6 mg/kg [4]: 66.4%
- inhibition in vivo at 0.6 mg/kg [5]: 79.6%

Compound: COc1cc2c(c(OC)c1OC)-c1ccc(-n3nccn3)c(=O)cc1[C@@H](NC(C)=O)CC2 [Compound 100, (S)—N-(1,2,3-trimethoxy-9-oxo-10-(2H-1,2,3-triazol-2-yl)-5,6,7,9-tetrahydrobenzo[a]heptalen-7-yl)acetamide]
- inhibition in vivo at 0.6 mg/kg [3]: 120%
- inhibition in vivo at 0.6 mg/kg [4]: 65.2%
- inhibition in vivo at 0.6 mg/kg [5]: 169%

Compound: COC(=O)c1ccc2c(cc1=O)[C@@H](N1CCCCC1=O)CCc1cc(OC)c(OC)c(OC)c1-2 [Compound 108, methyl (S)-1,2,3-trimethoxy-9-oxo-7-(2-oxopiperidin-1-yl)-5,6,7,9-tetrahydrobenzo[a]heptalen-10-carboxylate]
- inhibition in vivo at 0.6 mg/kg [3]: 104%
- inhibition in vivo at 0.6 mg/kg [4]: 92.7%
- inhibition in vivo at 0.6 mg/kg [5]: 207%

Compound: CCNS(=O)(=O)N[C@H]1CCc2cc(OC)c(OC)c(OC)c2-c2ccc(C(=O)OC)c(=O)cc21 [Compound 112]
- inhibition in vivo at 0.6 mg/kg [3]: 97.8%
- inhibition in vivo at 0.6 mg/kg [4]: 92%
- inhibition in vivo at 0.6 mg/kg [5]: 165%

Compound: [2H]C([2H])([2H])Oc1c(OC)cc2c(c1OC)-c1ccc(C(=O)NC)c(=O)cc1[C@@H](NC(C)=O)CC2 [Compound 122, (S)-7-acetamido-1,3-dimethoxy-2-trideutero-methoxy-N-methyl-9-oxo-5,6,7,9-tetrahydrobenzo[a]heptalen-10-carboxamide]
- Gait Score ([1]; 0 h): 0
- Gait Score ([1]; 2 h): 0
- Gait Score ([1]; 4 h): 0.2
- Gait Score ([1]; 8 h): 0.1
- Gait Score ([1]; 10 h): 0.2
- Gait Score ([1]; 24 h): 0.1
- Gait Score ([1]; 48 h): 0
- Swelling rate (ankle) ([2]; 2 h): 7.9%**
- Swelling rate (ankle) ([2]; 4 h): 12.1%**
- Swelling rate (ankle) ([2]; 8 h): 15.8%**
- Swelling rate (ankle) ([2]; 10 h): 15.3%**
- Swelling rate (ankle) ([2]; 24 h): 12.5%**
- Swelling rate (ankle) ([2]; 48 h): 4.7%**
- TNF-α percentage decrease % [3, 7]: 98.89%
- IL-1β percentage decrease % [4, 7]: 86.87%
- AUCINF ([6]; Gavage - 10 mg/kg): 3129 ng·h/mL
- Cmax ([6]; Gavage - 10 mg/kg): 1153 ng/mL
- MRTINF ([6]; Gavage - 10 mg/kg): 2.47 h
- Tmax ([6]; Gavage - 10 mg/kg): 0.250 h
- t1/2 ([6]; Gavage - 10 mg/kg): 1.79 h
- F ([6]; Gavage - 10 mg/kg, calculated by AUCINF): 50.1%
- AUCINF [6, 8]: 624 ng·h/mL
- CL [6, 8]: 27.2 mL/min/kg
- MRTINF [6, 8]: 1.34 h
- VSS [6, 8]: 1.99 L/kg
- t1/2 [6, 8]: 1.57 h
